Experimental data published in US9359371B2, “Bicyclic substituted pyrimidine compounds” (Xuanzhu Pharma Co., Ltd., priority 2012, dated 2016).
Read-outs that look alike come from different tables or passages of the source.

Tests used:
[1] = Pharmacokinetics (PK) in SD rats; type: in vivo; conditions: rat; for AUC(0-inf) / Cmax / Tmax / bioavailability / half-life: SD, plasma; for bioavailability: read-out: F % (absolute bioavailability)
PDE-6 = conditions: cited from earlier work
[2] = in human; cited from earlier work
PDE-11 = PDE-11 (Homo sapiens (Human), UniProt Q9HCR9); conditions: cited from earlier work
Chain of PDE-11 (Q9HCR9 whole entry): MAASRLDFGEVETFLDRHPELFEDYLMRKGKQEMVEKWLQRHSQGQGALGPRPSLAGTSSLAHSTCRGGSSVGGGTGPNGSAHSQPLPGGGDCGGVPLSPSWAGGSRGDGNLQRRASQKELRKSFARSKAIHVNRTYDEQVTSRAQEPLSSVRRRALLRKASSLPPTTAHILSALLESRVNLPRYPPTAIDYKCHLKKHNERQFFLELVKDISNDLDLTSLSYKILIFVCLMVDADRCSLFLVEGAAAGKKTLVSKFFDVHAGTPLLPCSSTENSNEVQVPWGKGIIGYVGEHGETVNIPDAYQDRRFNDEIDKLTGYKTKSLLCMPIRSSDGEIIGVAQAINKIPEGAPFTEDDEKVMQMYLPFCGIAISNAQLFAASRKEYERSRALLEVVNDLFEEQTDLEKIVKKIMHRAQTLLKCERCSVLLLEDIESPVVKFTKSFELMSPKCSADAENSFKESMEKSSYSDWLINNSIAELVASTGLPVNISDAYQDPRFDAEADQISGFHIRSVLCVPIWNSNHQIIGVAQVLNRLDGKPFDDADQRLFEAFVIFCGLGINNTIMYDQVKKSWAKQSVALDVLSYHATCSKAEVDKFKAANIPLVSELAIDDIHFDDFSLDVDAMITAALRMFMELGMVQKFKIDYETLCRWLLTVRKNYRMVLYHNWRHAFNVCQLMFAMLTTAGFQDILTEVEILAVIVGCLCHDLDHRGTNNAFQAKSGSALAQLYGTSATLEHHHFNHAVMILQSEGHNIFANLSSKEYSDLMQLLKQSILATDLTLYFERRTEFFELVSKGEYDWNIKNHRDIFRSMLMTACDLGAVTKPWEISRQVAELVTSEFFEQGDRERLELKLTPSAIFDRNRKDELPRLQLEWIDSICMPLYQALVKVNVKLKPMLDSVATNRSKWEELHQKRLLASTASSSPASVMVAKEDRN

[3] = tested on: length of New Zealand rabbit's penis; assay: Pharmacological activity in vivo (oral administration, 100 mg/kg), rabbit penis length; parameters: species or system New Zealand rabbits; conditions: Table 7; oral 100 mg/kg; 0-240 min
Description: Experiment 6: Assay of Pharmacological Activity In Vivo (Oral Administration)
After accommodating with the environment, the New Zealand rabbits were grabbed everyday. When the rabbits were accustomed to the repeated grabbing, drug administration was began. The animals were randomly divided into groups by weight, with 6 rabbits of each group. The test compounds were separately dissolved in menstruum. […] The corresponding test compounds were orally administrated to animals of each group. The dosage was 100 mg/kg, and the administration volume was 1 mL/kg. The length of the rabbit's penis was measured with a digital caliper before and 5, 10, 15, 30, 50, 60, 90, 120, 180 and 240 min after the administration. Touch of the rabbit's penis by the caliper was avoided during the measurements.

hERG channel = hERG channel (Homo sapiens (Human), UniProt Q12809); assay: hERG potassium channel whole-cell patch clamp on CHO-K1 cell line
Chain of hERG channel (Q12809 whole entry): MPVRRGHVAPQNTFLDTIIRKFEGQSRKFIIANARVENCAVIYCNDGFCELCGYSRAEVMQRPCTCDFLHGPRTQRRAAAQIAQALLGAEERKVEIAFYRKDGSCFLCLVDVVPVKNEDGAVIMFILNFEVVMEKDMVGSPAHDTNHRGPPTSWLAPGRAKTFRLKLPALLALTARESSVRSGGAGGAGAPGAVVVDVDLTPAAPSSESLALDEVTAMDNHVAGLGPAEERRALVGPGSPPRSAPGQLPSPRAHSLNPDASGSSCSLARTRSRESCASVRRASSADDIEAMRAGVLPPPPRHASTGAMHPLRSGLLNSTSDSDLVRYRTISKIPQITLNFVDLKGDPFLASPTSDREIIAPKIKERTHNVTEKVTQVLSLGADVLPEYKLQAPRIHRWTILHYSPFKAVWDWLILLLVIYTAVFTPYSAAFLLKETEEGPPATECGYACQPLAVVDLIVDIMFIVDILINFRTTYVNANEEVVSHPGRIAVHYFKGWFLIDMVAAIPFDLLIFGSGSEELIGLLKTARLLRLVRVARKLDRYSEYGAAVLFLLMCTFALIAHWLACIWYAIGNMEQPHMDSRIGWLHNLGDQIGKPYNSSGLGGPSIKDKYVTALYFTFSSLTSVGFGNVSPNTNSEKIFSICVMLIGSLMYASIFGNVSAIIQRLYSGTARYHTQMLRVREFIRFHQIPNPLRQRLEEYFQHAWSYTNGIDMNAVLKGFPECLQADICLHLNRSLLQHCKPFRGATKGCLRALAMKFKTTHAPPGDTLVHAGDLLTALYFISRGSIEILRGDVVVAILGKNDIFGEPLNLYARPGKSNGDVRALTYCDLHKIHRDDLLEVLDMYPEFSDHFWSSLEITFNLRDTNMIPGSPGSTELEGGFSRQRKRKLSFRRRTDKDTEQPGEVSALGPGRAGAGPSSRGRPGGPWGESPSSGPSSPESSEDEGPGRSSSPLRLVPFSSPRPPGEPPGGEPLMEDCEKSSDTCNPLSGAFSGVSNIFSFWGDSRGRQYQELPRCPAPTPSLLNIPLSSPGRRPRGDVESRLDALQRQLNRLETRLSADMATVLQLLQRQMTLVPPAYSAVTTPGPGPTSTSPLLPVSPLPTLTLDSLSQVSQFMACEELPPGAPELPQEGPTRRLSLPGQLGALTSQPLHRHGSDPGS
Description: Experiment 8: Detection of Inhibitory Effect of the Compounds of the Present Invention on hERG Potassium Channel by the Patch Clamp Method
Rapidly activated human delayed rectifying outward potassium current (IKr) is mainly mediated by hERG ion channel and is involved in repolarization of human cardiac muscle cell. Clinically, blocking of the current by a drug is the main cause of QT interval prolongation syndrome, acute arrhythmia and even sudden death. The main purpose of the experiment is to test the blocking effect of the compounds of the present invention on hERG channel, and to determine the half maximal inhibitory concentration (IC50) of the compounds.
The experiment mainly included: (1) recording hERG current by patch clamp technique on CHO-K1 cell line which stably expressed hERG channel; (2) calculating the Inhibition rate of each concentration according to hERG tail current; (3) testing each compound at 5 concentrations to calculate IC50; (4) testing 2 cells at each concentration; (5) a positive control.
The structures and synthesis of Compound 88 (WO-88) and Compound 93 (WO-93) as disclosed in WO200119802A were described in Example 55 and Example 56.
Drug for positive control: Amitriptyline hydrochloride (Sigma-Aldrich, an international standard blocker for hERG channel)
Pippette Solution (in mM): KCl 120, KOH 31.25, CaCl2 5.374, MgCl2 1.75, Ethylene glycol-bis(β-aminoethyl ether)-N,N,N′,N′-tetraacetic acid (EGTA) 10, HEPES 10, Na2-ATP 4, adjusted to a pH of 7.2 with 1N potassium hydroxide; adjusted to an osmotic pressure of 280-290 mOsm; preserved at −20° C. after filtration.
Preparation of compounds: Some of the compounds of the present invention and Amitriptyline hydrochloride as the positive control drug were separately dissolved in 100% DMSO (Merck, 61850125001730), then prepared into stock solutions of 30 mM. Before the experiment, the above stock solutions were diluted with DMSO to a concentration of 1000-fold of the experimental concentration. Then the diluted solutions were further diluted with extracellular solution by 1:1000 to the required experimental concentration. The final concentration of DMSO in the extracellular solution was kept as 0.1%.
Stable cell line CHO-hERG was purchased from AVIVA Company. The hERG current on the cell line was recorded. For the purpose of quality control, the smallest seal resistance was no less than 500 MΩ, and the hERG current was no less than 0.4 nA.
The hERG current was recorded by a whole-cell patch clamp technique. Cell suspension was added into a 35-mm culture dish. The culture dish was placed on the objective table of an inverted microscope. Upon cell attachment, perfusion was conducted with the extracellular solution at a flow rate of 1-2 mL/min.
Glass microelectrode with the pipette tip resistance of 2-5 MΩ was controlled by a microelectrode puller via a two-step process. After the whole-cell record was set up, the clamp potential was kept at −80 mV. The cell was depolarized to +60 mV by applying a voltage stimulus, and then repolarized to −50 mV to obtain the hERG tail current. Recordation was conducted after the current was stable. The extracellular perfusion was started from the lowest concentration, with 5-10 min for each concentration until the current was stable, and then conducted with the next concentration.
Stimulus payment and signal collection were performed by A/D-D/A conversion using Digidata 1440 (Molecular Devices) and pCLAMP software (Version 10.2, Molecular Devices). Signal amplification was performed on a patch clamp amplifier (Multiclamp 700B, Molecular Devices), with a filter of 1 KHz. Further data analysis and curve fitting were conducted by Clampfit (version 10.2, Molecular Devices) and Prism. The data were presented as mean value±standard deviation.
In the process of data analysis, the peak value and the baseline of the tail current were corrected when determining the blocking effect on hERG.

[4] = tested on: length of New Zealand rabbit's penis; assay: Pharmacological activity in vivo (intravenous injection), rabbit penis length; parameters: species or system New Zealand rabbits; conditions: iv 10 mg/kg, sodium nitroprussiate 0.2 mg/kg iv 5 min after, 0-120 min
Description: Experiment 5: Assay of Pharmacological Activity In Vivo (Intravenous Injection)
After accommodating with the environment, the New Zealand rabbits were grabbed everyday. When the rabbits were accustomed to the repeated grabbing, drug administration was began. The animals were randomly divided into groups by weight. The test compounds were separately dissolved in menstruum. […] The corresponding test compounds were injected into the auricular veins of animals of each group. The dosage of the compounds in Table 5 was 10 mg/kg, and the administration volume was 1 mL/kg. The dosage of the compounds in Table 6 was 10 mg/kg, and the administration volume was 2 mL/kg. 0.2 mg/kg sodium nitroprussiate was intravenously injected into the rabbits 5 min after the administration of the test compounds, with the administration volume of 0.5 mL/kg.
The length of the rabbit's penis was measured with a digital caliper before and 10, 15, 30, 50, 60, 90 and 120 min after the administration. Touch of the rabbit's penis by the caliper was avoided during the measurements.

[5] = target: PDE-5 enzyme (human blood platelets) (Homo sapiens (Human), UniProt O76074); assay: PDE-5 enzyme assay, [3H]cGMP; type: biochemical
[6] = tested on: length of New Zealand rabbit's penis; assay: Pharmacological activity in vivo (oral administration, 70 mg/kg, with SNP), rabbit penis length; parameters: species or system New Zealand rabbits; conditions: Table 8; oral 70 mg/kg; SNP 0.2 mg/kg iv 60 min after; 0-180 min
Description: Experiment 7: Assay of Pharmacological Activity In Vivo (Oral Administration)
After accommodating with the environment, the New Zealand rabbits were grabbed everyday. When the rabbits were accustomed to the repeated grabbing, drug administration was began. The animals were randomly divided into groups by weight, with 6 rabbits of each group. […] The corresponding test compounds were orally administrated to animals of each group. The dosage was 70 mg/kg, and the administration volume was 1 mL/kg. SNP (0.2 mg/kg, 0.5 mL/kg) was injected into the auricular veins of rabbits 60 min after the administration of the test compounds. The length of the rabbit's penis was measured with a digital caliper before and 10, 15, 30, 50, 60, 65, 70, 75, 90, 110, 120 and 180 min after the administration. Touch of the rabbit's penis by the caliper was avoided during the measurements.

bovine retinal PDE-6 [7] = target: bovine retinal PDE-6 (Bos taurus (Bovine), UniProt P11541+P23439); assay: PDE-6 enzyme assay, [3H]cGMP; type: biochemical
Chain of bovine retinal PDE-6 (Bos taurus (Bovine), UniProt P11541+P23439) (P11541 whole entry, looked up): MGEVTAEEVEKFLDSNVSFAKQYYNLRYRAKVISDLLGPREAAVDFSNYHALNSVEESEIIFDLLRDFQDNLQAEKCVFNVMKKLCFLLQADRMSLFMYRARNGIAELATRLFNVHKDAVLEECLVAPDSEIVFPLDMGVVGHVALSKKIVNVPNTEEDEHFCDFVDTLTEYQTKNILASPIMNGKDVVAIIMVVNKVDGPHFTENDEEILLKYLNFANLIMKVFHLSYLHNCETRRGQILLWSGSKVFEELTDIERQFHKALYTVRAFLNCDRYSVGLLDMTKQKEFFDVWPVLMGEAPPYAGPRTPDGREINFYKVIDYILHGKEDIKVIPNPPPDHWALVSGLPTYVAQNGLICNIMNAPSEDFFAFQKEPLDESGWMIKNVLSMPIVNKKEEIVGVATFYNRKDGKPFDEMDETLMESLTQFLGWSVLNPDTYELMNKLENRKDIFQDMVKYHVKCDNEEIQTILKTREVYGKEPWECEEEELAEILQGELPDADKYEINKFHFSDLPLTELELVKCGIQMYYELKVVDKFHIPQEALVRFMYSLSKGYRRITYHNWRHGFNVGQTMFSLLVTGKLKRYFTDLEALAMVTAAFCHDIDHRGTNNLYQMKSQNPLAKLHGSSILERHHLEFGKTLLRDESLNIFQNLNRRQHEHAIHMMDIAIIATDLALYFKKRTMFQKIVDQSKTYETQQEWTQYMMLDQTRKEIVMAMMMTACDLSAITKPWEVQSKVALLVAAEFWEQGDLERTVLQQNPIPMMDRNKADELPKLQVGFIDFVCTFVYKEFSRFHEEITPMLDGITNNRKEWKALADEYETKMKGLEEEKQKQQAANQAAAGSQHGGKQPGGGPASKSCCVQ
Chain of bovine retinal PDE-6 (Bos taurus (Bovine), UniProt P11541+P23439) (P23439 whole entry, looked up): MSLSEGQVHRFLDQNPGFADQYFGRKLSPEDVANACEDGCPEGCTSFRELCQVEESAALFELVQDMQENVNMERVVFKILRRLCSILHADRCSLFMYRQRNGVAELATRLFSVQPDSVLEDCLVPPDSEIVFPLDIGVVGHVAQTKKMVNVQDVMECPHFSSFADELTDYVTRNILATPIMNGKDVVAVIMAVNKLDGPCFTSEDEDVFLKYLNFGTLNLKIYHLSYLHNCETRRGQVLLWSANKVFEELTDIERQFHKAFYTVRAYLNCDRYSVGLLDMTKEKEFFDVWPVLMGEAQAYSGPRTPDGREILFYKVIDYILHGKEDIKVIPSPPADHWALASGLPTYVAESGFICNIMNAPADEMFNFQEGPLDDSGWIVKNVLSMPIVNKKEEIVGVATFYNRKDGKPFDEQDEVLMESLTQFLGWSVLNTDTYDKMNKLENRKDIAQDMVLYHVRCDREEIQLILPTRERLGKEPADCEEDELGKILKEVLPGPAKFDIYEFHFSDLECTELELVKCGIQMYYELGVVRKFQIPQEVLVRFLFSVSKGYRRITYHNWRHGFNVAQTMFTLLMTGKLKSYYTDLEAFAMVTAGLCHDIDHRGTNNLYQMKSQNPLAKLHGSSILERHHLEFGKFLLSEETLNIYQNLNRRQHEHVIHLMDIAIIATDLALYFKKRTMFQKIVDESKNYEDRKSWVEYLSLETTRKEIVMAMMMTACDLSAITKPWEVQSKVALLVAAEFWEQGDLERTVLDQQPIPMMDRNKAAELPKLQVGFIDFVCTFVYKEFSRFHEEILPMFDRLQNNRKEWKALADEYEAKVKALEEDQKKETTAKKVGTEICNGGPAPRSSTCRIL
Description: (§1) Experiment 3: Measurement of Enzyme Activity on PDE-6 Enzyme In Vitro
(§2) Source of enzyme: PDE-6, bovine retinal PDE-6
(§3) Method: The test compound or solvent was incubated at 25° C. for 15 min with enzyme solution (0.2 μg/mL) in Tris-HCl buffer of pH 7.5. 100 μM cGMP and 0.03 μM [^3H] cGMP were then added to activate the reaction. The mixture was incubated for 20 min. The reaction was stopped at 100° C. By addition of snake venom nucleotidase, the product [^3H] GMP was converted into [^3H] Guanosine, which was separated with AG1-X2 resin. The amount of [^3H] Guanosine was measured.

PDE-5A enzyme = PDE-5A enzyme (Homo sapiens (Human), UniProt O76074); assay: Caliper Mobility-Shift PDE-5A Assay; type: biochemical; conditions: Table 1; Avanafil value is the control
bovine retinal PDE-6 [8] = assay: PDE-6 enzyme assay, [3H]cGMP; type: biochemical; conditions: for selectivity on PDE-5 enzyme versus PDE-6 (in words): selectivity >70 called high
Description: as §1, §2, §3

[9] = po, intragastric administration, 2 mg/kg
[10] = Table 2, human blood platelet enzyme, read-out: IC50 on PDE-5
[11] = Table 4-1, read-out: PDE-5 (IC50 nM)
[12] = Table 3, read-out: IC50 on PDE-6
[13] = Table 4-1, read-out: PDE-6 (IC50 nM)
[14] = po, intragastric administration, 5 mg/kg

| Structure (SMILES) | bioavailability [1, 9] [%] | AUC(0-inf) ([1]; intravenous injection, 2 mg/kg) [ng·h/mL] | Cl_obs ([1]; intravenous injection, 2 mg/kg) [mL/min/kg] | Vss_obs ([1]; intravenous injection, 2 mg/kg) [L/kg] | half-life [2] | AUC of penis length [3] [mm × min] | IC50 (hERG channel) [nM] | AUC of penis length ([4]; Table 6, 2 mL/kg) [mm × min] | IC50 [5, 10] [nM] | IC50 [5, 11] [nM] | AUC of penis length [6] [mm × min] | IC50 (bovine retinal PDE-6 [7]; [12]) [nM] | IC50 (bovine retinal PDE-6 [7]; [13]) [nM] | selectivity on PDE-5 enzyme versus PDE-6 (in words) (bovine retinal PDE-6 [8]) | also measured |
| --- | --- | --- | --- | --- | --- | --- | --- | --- | --- | --- | --- | --- | --- | --- | --- |
| COc1ccc(CN=c2[nH]c(N3CCC[C@H]3CO)ncc2C(=O)NCc2ncccn2)cc1Cl [Avanafil, reference compound] | 4.5 | 382 | 88.5 | 3.56 | about 1.2 h | 199.4 | 14600 | 421.2 |  |  |  |  |  |  | AUC(0-inf) [1, 9]: 50 ng·h/mL; Cmax [1, 9]: 18 ng/mL; Tmax [1, 9]: 0.33 h; ratio PDE-6/5 (PDE-6): about 120; inhibitory effect on PDE-11 (PDE-11): no inhibitory effect on PDE-11; AUC of penis length ([4]; Table 5, 1 mL/kg): 317.9 mm × min |
| CN1CC(=O)N2[C@H](c3ccc4c(c3)OCO4)c3[nH]c4ccccc4c3C[C@@H]2C1=O [Tadalafil] |  |  |  |  | about 16 h |  |  |  |  |  |  |  |  |  |  |
| COc1ccc(CNc2nc(N3CCC4(CC4)C3)ncc2C(=O)N[C@H]2CC[C@H](O)CC2)cc1Cl [Compound 38, 4-((3-chloro-4-methoxybenzyl)amino)-N-(trans-4-hydroxycyclohexyl)-2-(5-azaspiro[2.4]heptan-5-yl)pyrimidine-5-formamide] | 35 |  |  |  |  | 802.7 |  | 772.8 | 0.8 | 0.8 | 654.0 | 58 | 58 |  | half-life [1, 9]: 2.11 h; half-life ([1]; intravenous injection, 1 mg/kg): 3.5 h; Cl_obs ([1]; intravenous injection, 1 mg/kg): 16.8 mL/min/kg; Vss_obs ([1]; intravenous injection, 1 mg/kg): 4.47 L/kg |
| COc1ccc(CNc2nc(N3CC4CC4C3)ncc2C(=O)NCc2ccccc2)cc1Cl (stereo not drawn) [Compound 3, N-benzyl-2-(3-azabicyclo[3.1.0]hexan-3-yl)-4-((3-chloro-4-methoxybenzyl)amino)pyrimidine-5-formamide] |  |  |  |  |  |  | > 27800 |  | 0.91 |  | 46.26 |  | 8.89 | higher selectivity on PDE-5 enzyme than to PDE-6 | IC50 (PDE-5A enzyme): 12.9 nM; inhibitory effect on hERG channel (in words) (hERG channel; human, CHO-K1 cells stably expressing hERG channel, pH 7.4): none of Compound 3, 11 and 50 of the present invention had a significant inhibitory effect |
| COc1ccc(CNc2nc(N3CC4CC4C3)ncc2C(=O)N[C@H]2CC[C@H](O)CC2)cc1F (stereo partly drawn) [Compound 48, 2-(3-azabicyclo[3.1.0]hexan-3-yl)-4-((3-fluoro-4-methoxybenzyl)amino)-N-(trans-4-hydroxycyclohexyl)pyrimidine-5-formamide] |  | 2060 | 17 | 4.59 |  |  | 8760 |  | 7.99 | 7.99 |  | 1110 | 1110 | higher selectivity on PDE-5 enzyme than to PDE-6 | AUC(0-inf) [1, 14]: 2330 ng·h/mL; Cmax [1, 14]: 415 ng/mL; Tmax [1, 14]: 2 h; half-life [1, 14]: 2 h; bioavailability [1, 14]: 63%; half-life ([1]; intravenous injection, 2 mg/kg): 4.4 h; Selectivity (PDE-6/PDE-5) (bovine retinal PDE-6 [8]; IC50 for PDE-6/IC50 for PDE-5): 140; inhibitory effect on hERG channel (in words) (hERG channel): slight inhibitory effect |
